Assay results published in US11661404B2, “Prodrug compounds activated by AKR1C3 and their use for treating hyperproliferative disorders” (priority 2018, dated 2023).
Where two headings read alike, the source gives them in different places.

Tests used:
recombinant human AKR1C3 = molecular target: T1, recombinant human AKR1C3 (Homo sapiens, UniProt P42330); test: Kinetics assay: metabolism of prodrugs by recombinant human AKR1C3; assay type: biochemical; conditions: NADPH, pH 7.4, 37° C.
T1 construct: His6 (hexahistidine) (C); made in house; host or cells: E. coli BL21(DE3)
T1 sequence (P42330 1-323): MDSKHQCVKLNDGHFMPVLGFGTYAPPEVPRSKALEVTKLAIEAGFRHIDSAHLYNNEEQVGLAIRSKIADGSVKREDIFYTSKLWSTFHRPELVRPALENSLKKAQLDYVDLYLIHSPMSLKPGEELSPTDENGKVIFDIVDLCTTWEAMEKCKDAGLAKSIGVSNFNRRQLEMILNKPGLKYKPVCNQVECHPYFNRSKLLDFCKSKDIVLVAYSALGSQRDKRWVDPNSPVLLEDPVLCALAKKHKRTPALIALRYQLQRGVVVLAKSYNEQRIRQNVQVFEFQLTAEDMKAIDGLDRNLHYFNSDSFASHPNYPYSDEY
Description: E. coli BL21(DE3) cells expressing the pET22b-AKR1C3 construct with a C-terminal hexahistidine (His6) tag and constitutive promoter was generated. Colonies of these transformed E. coli cells were grown in LB agar medium containing 100 μg/mL of ampicillin. A single colony was picked the following day and grown in 400 mL batches of bacterial medium containing ampicillin (100 μg/mL) at 37° C., with continuous shaking at 200 rpm overnight. Bacterial cultures were pelleted by centrifugation (4000×g, 15 minutes) and resuspended in lysis buffer (10 mL/400 mL culture). The cells were disrupted by sonication (Sonicator 3000, Misonix) and centrifuged at 14,000 rpm for 30 minutes (at 4° C.). The cleared lysate was filtered in successive filters containing pore sizes of 1.20 μm, 0.8 μm and 0.2 μm and loaded onto a nickel-agarose affinity chromatography column on an ÄKTA Purifier system. The column was washed with 20 mL of the lysis buffer and the His6-tagged AKR1C3 protein was eluted with lysis buffer supplemented with 500 mM imidazole. The protein was further purified by a liquid chromatography gel filtration column (Superdex 200 HR16/60) using lysis buffer (supplemented with 5% v/v glycerol) and 1 mM DTT (pH 7.0) at a flow rate of 0.3 mL/min. Protein was monitored by absorbance at 280 nm, and purity of the fractions (1 mL) was assessed by SDS-PAGE. Active fractions containing the purified protein were pooled and concentrated by centrifugation (3,000×g, 4° C.) on a Vivaspin concentrator (MWCO 10,000 cutoff; GE Healthcare). The protein containing solution was supplemented with glycerol (to a final concentration of 15%, v/v) and NADP^+ was added to a final concentration of 2 mM.
Kinetic parameters of compounds of the invention were determined in a 96-well plate format. The 100 mM potassium phosphate buffer used in this assay was made with the following reagents to a pH of 7.4: • 0.5 M K2HPO4— 8.2 mL • 0.5 M KH2PO4— 1.8 mL • BSApowder—25 mg • Milli Q water—40 mL
For the assay, 2 μL of varying substrate concentrations were incubated with 94 μL of the potassium phosphate buffer and 2 μL of 5 mM NADPH for 5 minutes in the pre-warmed (37° C.) plate chamber of a Molecular Devices SpectraMax M2 plate reader. Purified AKR1C3 enzyme (2 μL) was added to a final concentration of […] in each well using an Eppendorf electronic multi-channel pipette. Absorbance measurements were recorded immediately upon addition of enzyme over a period of 5 minutes at a wavelength of 400 nm. Absorbance changes for each compound concentration were plotted against time to obtain the rate of absorbance change over the 5 minute period. The rate of absorbance change was then plotted against the compound concentration and non-linear regression analysis and Michaelis-Menten curve fitting performed on GraphPadPrism (version 5.00 for Windows, GraphPad Software, San Diego Calif. USA) in order to determine kinetic parameters of compounds.

[1] = system: wild-type HCT116 colon cancer cells; test: Anti-proliferative IC50 under oxic and anoxic conditions; assay type: cell-based, human; conditions: for IC50: Homo sapiens, HCT-116; for Hypoxic Cytotoxicity Ratio (HCR): oxic vs anoxic IC50, HCT116-WT
Description: PR-104A was initially designed and optimised as a hypoxia-selective cytotoxin (Patterson et al, Clinical Cancer Research, 2007, 13, 3922-3932). In the context of an AKR1C3-activated prodrug, this route of activation is considered off-mechanism and may potentially be undesirable, leading to off-target toxicities in a subject. Preferred compounds of the invention have been determined to be substantially resistant to hypoxia-dependent activation and cytotoxicity in wild-type HCT116 colon cancer cells. HCT116 cells were treated with compounds of the invention under either oxic or anoxic conditions and then their degree of anti-proliferative activity determined.
Selected compounds were evaluated for cytotoxic potential (IC50) under anoxic conditions. The same procedures as described above for Examples 9-11 were carried out in a Bactron anoxic chamber (Sheldon Manufacturing Inc) with internal 37° C. incubators where palladium catalyst scrubbed gas (90% N2, 5% H2, 5% CO2) ensured severe anoxia (<0.001% O2) in the whole chamber. All materials required (including cells) were taken into the chamber through two cycles of vacuum and gassing with 100% N2, followed by a single cycle with 5% CO2 and 5% hydrogen in nitrogen. All experimental materials were placed in the anoxic chamber at least 3 days prior to the day required for the experiment in order to remove any traces of residual O2. The medium used for the 96-well plates in the anoxic chamber consisted of α-MEM+10% (v/v) FBS+1% (v/v) additives (1 M β-D-Glucose and 20 mM 2′-Deoxycytidine).

[2] = anoxic (<0.001% O2), read-out: HCT116-WT Anti-proliferative IC50 Anoxic
[3] = read-out: HCT116-WT Anti-proliferative IC50 Oxic

Structure (SMILES)	Km (recombinant human AKR1C3)	kcat (recombinant human AKR1C3)	IC50 [1, 2]	IC50 [1, 3]	Hypoxic Cytotoxicity Ratio (HCR) [1]
O=[N+]([O-])c1ccc(N(CCBr)CCBr)c(S(=O)(=O)N2CCN(CC(O)CO)CC2)c1 (stereo not drawn) [Compound 566, 3-(4-((2-(bis(2-bromoethyl)amino)-5-nitrophenyl)sulfonyl)piperazin-1-yl)propane-1,2-diol]	32.2 µM	67.1 s⁻¹	–	–	–
CN1CCN(S(=O)(=O)c2cc([N+](=O)[O-])ccc2N(CCBr)CCOS(C)(=O)=O)CC1 [Compound 602, 2-((2-bromoethyl)(2-((4-methylpiperazin-1-yl)sulfonyl)-4-nitrophenyl)amino)ethyl methanesulfonate]	33.1 µM	–	3.51 µM	4.26 µM	–
CS(=O)(=O)OCCN(CCBr)c1ccc([N+](=O)[O-])cc1S(=O)(=O)N1CCN(CC(O)CO)CC1 (stereo not drawn) [Compound 605, 2-((2-bromoethyl)(2-((4-(2,3-dihydroxypropyl)piperazin-1-yl)sulfonyl)-4-nitrophenyl)amino)ethyl methanesulfonate]	17.1 µM	–	–	–	–
CN1CCN(S(=O)(=O)c2cc([N+](=O)[O-])ccc2N(CCOS(C)(=O)=O)CCOS(C)(=O)=O)CC1 [Compound 641, ((2-((4-methylpiperazin-1-yl)sulfonyl)-4-nitrophenyl)azanediyl)bis(ethane-2,1-diyl) dimethanesulfonate]	21.5 µM	–	2.52 µM	5.91 µM	2
CS(=O)(=O)OCCN(CCBr)c1c(C(=O)NCCO)cc([N+](=O)[O-])cc1[N+](=O)[O-] [PR-104A, 2-((2-bromoethyl)(2-((2-hydroxyethyl)-carbamoyl)-4,6-dinitrophenyl)amino)ethyl methanesulfonate, reference compound]	72.9 µM	18.7 s⁻¹	2.83 µM	55.8 µM	20
CN1CCN(C(=O)c2cc([N+](=O)[O-])ccc2N(CCBr)CCBr)CC1 [SN34118, reference compound]	9 µM	18.7 s⁻¹	–	–	–
CN1CCN(C(=O)c2cc([N+](=O)[O-])ccc2N(CCBr)CCOS(C)(=O)=O)CC1 [SN34454, reference compound]	–	5.2 s⁻¹	–	–	–
